Data as given in patent US6737383B1, “Herbicidal oxadiazolidines” (priority 1999, dated 2004).

Experiments:
giant foxtail = experiment: Test B pre/postemergence giant foxtail; assay type: in vivo, Setaria faberii
Outline: (§1)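 Test chemicals in a non-phytotoxic solvent mixture with surfactant were sprayed preemergence onto planted seeds and postemergence onto plants 2 to 18 cm tall (1- to 4-leaf stage). After twelve to sixteen days in a greenhouse, injury was visually rated against untreated controls from 0 (no effect) to 10 (complete control).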

bamyardgrass = experiment: Test B flood test barnyardgrass; assay type: in vivo, Echinochloa crus-galli
Outline: (§2)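 Each value is a visual injury score relative to controls, with 10 meaning complete control and 0 no effect. Evaluation took place twelve to sixteen days after the 2-leaf-stage plants were treated and kept in the greenhouse.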

duck salad = experiment: Test B flood test duck salad; assay type: in vivo, Heteranthera limosa
Outline: as §2

surinam grass = experiment: Test B pre/postemergence surinam grass; assay type: in vivo, Brachiaria decumbens
Outline: as §1

velvetleaf = experiment: Test B pre/postemergence velvetleaf; assay type: in vivo, Abutilon theophrasti; conditions: for Plant response rating, Velvetleaf: scale of 0 to 10 where 0 is no effect and 10 is complete control
Outline: as §1

crabgrass = experiment: Test B pre/postemergence crabgrass; assay type: in vivo, Digitaria sanguinalis
Outline: as §1

wild oat = experiment: Test B pre/postemergence wild oat; assay type: in vivo, Avena fatua; conditions: for Plant response rating, Wild oats: scale of 0 to 10 where 0 is no effect and 10 is complete control
Outline: as §1

corn = experiment: Test B pre/postemergence corn; assay type: in vivo, Zea mays
Outline: as §1

soybean = experiment: Test B pre/postemergence soybean; assay type: in vivo, Glycine max; conditions: for Plant response rating, Soybean: scale of 0 to 10 where 0 is no effect and 10 is complete control
Outline: as §1

rape = experiment: Test B pre/postemergence rape; assay type: in vivo, Brassica napus; conditions: for Plant response rating, Rape: scale of 0 to 10 where 0 is no effect and 10 is complete control
Outline: as §1

rice = experiment: Test B flood test rice; assay type: in vivo, Oryza sativa
Outline: as §2

smallflower flatsedge = experiment: Test B flood test smallflower flatsedge; assay type: in vivo, Cyperus difformis
Outline: as §2

cocklebur = experiment: Test B pre/postemergence cocklebur; assay type: in vivo, Xanthium strumarium
Outline: as §1

pigweed = experiment: Test B pre/postemergence pigweed; assay type: in vivo, Amaranthus retroflexus; conditions: for Plant response rating, Redroot pigweed: scale of 0 to 10 where 0 is no effect and 10 is complete control
Outline: as §1

purple nutsedge = experiment: Test B pre/postemergence purple nutsedge; assay type: in vivo, Cyperus rotundus; conditions: for Plant response rating, Nutsedge: scale of 0 to 10 where 0 is no effect and 10 is complete control
Outline: as §1

morningglory = experiment: Test B pre/postemergence morningglory; assay type: in vivo, Ipomoea hederacea; conditions: for Plant response rating, Morningglory: scale of 0 to 10 where 0 is no effect and 10 is complete control
Outline: as §1

sugar beet = experiment: Test B pre/postemergence sugar beet; assay type: in vivo, Beta vulgaris; conditions: for Plant response rating, Sugarbeets: scale of 0 to 10 where 0 is no effect and 10 is complete control
Outline: as §1

wheat = experiment: Test B pre/postemergence wheat; assay type: in vivo, Triticum aestivum; conditions: for Plant response rating, Wheat: scale of 0 to 10 where 0 is no effect and 10 is complete control
Outline: as §1

blackgrass = experiment: Test B pre/postemergence blackgrass; assay type: in vivo, Alopecurus myosuroides
Outline: as §1

[1] = Postemergence, Rate 250 g/ha, scale 0 to 10
[2] = Postemergence, Rate 500 g/ha, scale of 0 to 10 where 0 is no effect and 10 is complete control
[3] = Preemergence, Rate 62 g/ha, scale of 0 to 10 where 0 is no effect and 10 is complete control
[4] = Preemergence, Rate 125 g/ha, scale of 0 to 10 where 0 is no effect and 10 is complete control
[5] = Preemergence, Rate 250 g/ha, scale 0 to 10, 0 is no effect, 10 is complete control
[6] = Preemergence, Rate 500 g/ha, scale 0 to 10, 0 is no effect, 10 is complete control
[7] = Rate 62 g/ha, Postemergence, scale 0 to 10 (0 no effect, 10 complete control)
[8] = Rate 125 g/ha, Postemergence, scale 0 to 10, 0 is no effect, 10 is complete control
[9] = Rate 62 g/ha, flood test species, Pre-emergence, visual evaluation after twelve to sixteen days
[10] = Rate 125 g/ha, under heading Pre-emergence, flood test species, visual evaluation after twelve to sixteen days
[11] = Rate 250 g/ha, Pre-emergence (flood test species), scale 0 to 10, 0 is no effect, 10 is complete control
[12] = Rate 500 g/ha, Pre-emergence, flood test species, scale 0 to 10 (0 no effect, 10 complete control)

CC(=O)NCn1c(=O)on(C(=O)N(c2ccc(F)cc2)C(C)C)c1=O [Compound 473]
Giant foxtail plant response rating (giant foxtail; [1]): 6
Giant foxtail plant response rating (giant foxtail; [2]): 7
Plant response rating, Giant foxtail (giant foxtail; [3]): 2
Plant response rating, Giant foxtail (giant foxtail; [4]): 3
Giant foxtail plant response rating (giant foxtail; [5]): 4
Giant foxtail plant response rating (giant foxtail; [6]): 7
Giant foxtail plant response rating (giant foxtail; [7]): 1
Giant foxtail plant response rating (giant foxtail; [8]): 2
Plant response rating, Barnyardgrass (0 to 10 scale, 0 is no effect, 10 is complete control) (bamyardgrass; [9]): 0
Barnyardgrass plant response rating (0 to 10 scale, 0 is no effect, 10 is complete control) (bamyardgrass; [10]): 0
Barnyardgrass plant response rating (bamyardgrass; [11]): 0
Barnyardgrass plant response rating (bamyardgrass; [12]): 0
Plant response rating, Ducksalad (0 to 10 scale, 0 is no effect, 10 is complete control) (duck salad; [9]): 0
Ducksalad plant response rating (0 to 10 scale, 0 is no effect, 10 is complete control) (duck salad; [10]): 0
Ducksalad plant response rating (duck salad; [11]): 0
Ducksalad plant response rating (duck salad; [12]): 0
B. signalgrass plant response rating (surinam grass; Postemergence, Rate 250 g/ha, scale 0 to 10, 0 no effect, 10 complete control): 0
B. signalgrass plant response rating (surinam grass; [2]): 0
Plant response rating, B. signalgrass (surinam grass; [3]): 0
Plant response rating, B. signalgrass (surinam grass; [4]): 0
B. signalgrass plant response rating (surinam grass; [5]): 0
B. signalgrass plant response rating (surinam grass; [6]): 0
B. signalgrass plant response rating (surinam grass; [7]): 0
B. signalgrass plant response rating (surinam grass; [8]): 0
Velvetleaf plant response rating (velvetleaf; [1]): 0
Plant response rating, Velvetleaf (velvetleaf; Preemergence, Rate 62 g/ha): 0
Plant response rating, Velvetleaf (velvetleaf; Preemergence, Rate 125 g/ha): 0
Velvetleaf plant response rating (velvetleaf; [5]): 0
Velvetleaf plant response rating (velvetleaf; [6]): 0
Velvetleaf plant response rating (velvetleaf; [7]): 0
Velvetleaf plant response rating (velvetleaf; [8]): 0
Crabgrass plant response rating (crabgrass; [1]): 3
Crabgrass plant response rating (crabgrass; [2]): 8
Plant response rating, Crabgrass (crabgrass; [4]): 2
Crabgrass plant response rating (crabgrass; [5]): 4
Crabgrass plant response rating (crabgrass; [6]): 7
Crabgrass plant response rating (crabgrass; [7]): 1
Crabgrass plant response rating (crabgrass; [8]): 2
Wild oats plant response rating (wild oat; [1]): 0
Plant response rating, Wild oats (wild oat; Preemergence, Rate 62 g/ha): 0
Plant response rating, Wild oats (wild oat; Preemergence, Rate 125 g/ha): 0
Wild oats plant response rating (wild oat; [5]): 0
Wild oats plant response rating (wild oat; [6]): 0
Wild oats plant response rating (wild oat; [7]): 0
Wild oats plant response rating (wild oat; [8]): 0
Corn plant response rating (corn; [1]): 0
Corn plant response rating (corn; [2]): 0
Plant response rating, Corn (corn; [3]): 0
Plant response rating, Corn (corn; [4]): 0
Corn plant response rating (corn; [5]): 0
Corn plant response rating (corn; [6]): 0
Corn plant response rating (corn; [7]): 0
Corn plant response rating (corn; [8]): 0
Soybean plant response rating (soybean; [1]): 1
Plant response rating, Soybean (soybean; Preemergence, Rate 62 g/ha): 0
Plant response rating, Soybean (soybean; Preemergence, Rate 125 g/ha): 0
Soybean plant response rating (soybean; [5]): 0
Soybean plant response rating (soybean; [6]): 0
Soybean plant response rating (soybean; [7]): 1
Soybean plant response rating (soybean; [8]): 1
Rape plant response rating (rape; [1]): 0
Plant response rating, Rape (rape; Preemergence, Rate 62 g/ha): 0
Plant response rating, Rape (rape; Preemergence, Rate 125 g/ha): 0
Rape plant response rating (rape; [5]): 0
Rape plant response rating (rape; [6]): 0
Rape plant response rating (rape; [7]): 0
Rape plant response rating (rape; [8]): 0
Plant response rating, Rice (0 to 10 scale, 0 is no effect, 10 is complete control) (rice; [9]): 0
Rice plant response rating (0 to 10 scale, 0 is no effect, 10 is complete control) (rice; [10]): 0
Rice plant response rating (rice; [11]): 0
Rice plant response rating (rice; [12]): 0
Plant response rating, S. Flatsedge (0 to 10 scale, 0 is no effect, 10 is complete control) (smallflower flatsedge; [9]): 0
S. Flatsedge plant response rating (0 to 10 scale, 0 is no effect, 10 is complete control) (smallflower flatsedge; [10]): 0
S. Flatsedge plant response rating (smallflower flatsedge; [11]): 0
S. Flatsedge plant response rating (smallflower flatsedge; [12]): 0
Cocklebur plant response rating (cocklebur; [1]): 0
Cocklebur plant response rating (cocklebur; [2]): 0
Plant response rating, Cocklebur (cocklebur; [3]): 0
Plant response rating, Cocklebur (cocklebur; [4]): 0
Cocklebur plant response rating (cocklebur; [6]): 0
Cocklebur plant response rating (cocklebur; [7]): 0
Cocklebur plant response rating (cocklebur; [8]): 0
Redroot pigweed plant response rating (pigweed; [1]): 0
Plant response rating, Redroot pigweed (pigweed; Preemergence, Rate 62 g/ha): 2
Plant response rating, Redroot pigweed (pigweed; Preemergence, Rate 125 g/ha): 10
Redroot pigweed plant response rating (pigweed; [5]): 10
Redroot pigweed plant response rating (pigweed; [6]): 10
Redroot pigweed plant response rating (pigweed; [7]): 0
Redroot pigweed plant response rating (pigweed; [8]): 0
Nutsedge plant response rating (purple nutsedge; [1]): 0
Plant response rating, Nutsedge (purple nutsedge; Preemergence, Rate 62 g/ha): 0
Plant response rating, Nutsedge (purple nutsedge; Preemergence, Rate 125 g/ha): 0
Nutsedge plant response rating (purple nutsedge; [5]): 0
Nutsedge plant response rating (purple nutsedge; [7]): 0
Nutsedge plant response rating (purple nutsedge; [8]): 0
Morningglory plant response rating (morningglory; [1]): 2
Plant response rating, Morningglory (morningglory; Preemergence, Rate 62 g/ha): 0
Plant response rating, Morningglory (morningglory; Preemergence, Rate 125 g/ha): 0
Morningglory plant response rating (morningglory; [5]): 0
Morningglory plant response rating (morningglory; [6]): 0
Morningglory plant response rating (morningglory; [7]): 0
Morningglory plant response rating (morningglory; [8]): 1
Sugarbeets plant response rating (sugar beet; [1]): 0
Plant response rating, Sugarbeets (sugar beet; Preemergence, Rate 62 g/ha): 0
Plant response rating, Sugarbeets (sugar beet; Preemergence, Rate 125 g/ha): 0
Sugarbeets plant response rating (sugar beet; [5]): 0
Sugarbeets plant response rating (sugar beet; [6]): 0
Sugarbeets plant response rating (sugar beet; [7]): 0
Sugarbeets plant response rating (sugar beet; [8]): 0
Wheat plant response rating (wheat; [1]): 0
Plant response rating, Wheat (wheat; Preemergence, Rate 62 g/ha): 0
Plant response rating, Wheat (wheat; Preemergence, Rate 125 g/ha): 0
Wheat plant response rating (wheat; [5]): 0
Wheat plant response rating (wheat; [6]): 0
Wheat plant response rating (wheat; [7]): 0
Wheat plant response rating (wheat; [8]): 0
Blackgrass plant response rating (blackgrass; [1]): 0
Blackgrass plant response rating (blackgrass; [2]): 0
Plant response rating, Blackgrass (blackgrass; [3]): 0
Plant response rating, Blackgrass (blackgrass; [4]): 0
Blackgrass plant response rating (blackgrass; [5]): 0
Blackgrass plant response rating (blackgrass; [6]): 3
Blackgrass plant response rating (blackgrass; [7]): 0
Blackgrass plant response rating (blackgrass; [8]): 0
